Values after ≈ are worked out from the molar mass of the structure shown.
Key:
Assay type in all cases: functional
Streptococcus pneumoniae [1] = test: Antibacterial activity against erythromycin-sensitive Streptococcus pneumoniae ATCC 49619 assessed as inhibition of bacterial growth by CLSI based micro broth double dilution method
Klebsiella pneumoniae [2] = test: Antibacterial activity against ESBL negative Klebsiella pneumoniae 16-2 assessed as inhibition of bacterial growth by CLSI based micro broth double dilution method
Enterococcus faecalis [3] = test: Antibacterial activity against vancomycin-resistant Enterococcus faecalis ATCC 51299 assessed as inhibition of bacterial growth by CLSI based micro broth double dilution method
Staphylococcus aureus [4] = test: Antibacterial activity against methicillin-sensitive Staphylococcus aureus 16-1 assessed as inhibition of bacterial growth by CLSI based micro broth double dilution method
Streptococcus pyogenes [5] = test: Antibacterial activity against erythromycin-sensitive Streptococcus pyogenes ATCC 19615 assessed as inhibition of bacterial growth by CLSI based micro broth double dilution method
[6] = tested on: Staphylococcus epidermidis; test: Antibacterial activity against methicillin-sensitive Staphylococcus epidermidis 16-4 assessed as inhibition of bacterial growth by CLSI based micro broth double dilution method
Escherichia coli [7] = test: Antibacterial activity against ESBL-positive Escherichia coli ATCC 35218 assessed as inhibition of bacterial growth by CLSI based micro broth double dilution method
Enterococcus faecalis [8] = test: Antibacterial activity against vancomycin-sensitive Enterococcus faecalis […] assessed as inhibition of bacterial growth by CLSI based micro broth double dilution method
Klebsiella pneumoniae [9] = test: Antibacterial activity against ESBL negative Klebsiella pneumoniae 7 assessed as inhibition of bacterial growth by CLSI based micro broth double dilution method
Enterococcus faecalis [10] = test: Antibacterial activity against vancomycin-resistant Enterococcus faecalis ATCC 51575 assessed as inhibition of bacterial growth by CLSI based micro broth double dilution method
Klebsiella pneumoniae [11] = test: Antibacterial activity against ESBL positive Klebsiella pneumoniae ATCC 700603 assessed as inhibition of bacterial growth by CLSI based micro broth double dilution method
Staphylococcus aureus [12] = test: Antibacterial activity against methicillin-sensitive Staphylococcus aureus 15 assessed as inhibition of bacterial growth by CLSI based micro broth double dilution method
Escherichia coli [13] = test: Antibacterial activity against Escherichia coli 16-7 assessed as inhibition of bacterial growth by CLSI based micro broth double dilution method
Streptococcus pyogenes [14] = test: Antibacterial activity against erythromycin-resistant Streptococcus pyogenes 12-1 assessed as inhibition of bacterial growth by CLSI based micro broth double dilution method
Streptococcus pneumoniae [15] = test: Antibacterial activity against erythromycin-resistant Streptococcus pneumoniae 12-3 assessed as inhibition of bacterial growth by CLSI based micro broth double dilution method
Pseudomonas aeruginosa [16] = test: Antibacterial activity against Pseudomonas aeruginosa ATCC 27853 assessed as inhibition of bacterial growth by CLSI based micro broth double dilution method
Escherichia coli [17] = test: Antibacterial activity against ESBL-negative Escherichia coli ATCC 25922 assessed as inhibition of bacterial growth by CLSI based micro broth double dilution method
Pseudomonas aeruginosa [18] = test: Antibacterial activity against Pseudomonas aeruginosa 16-11 assessed as inhibition of bacterial growth by CLSI based micro broth double dilution method
Staphylococcus aureus [19] = test: Antibacterial activity against methicillin-sensitive Staphylococcus aureus ATCC 29213 assessed as inhibition of bacterial growth by CLSI based micro broth double dilution method
Pseudomonas aeruginosa [20] = test: Antibacterial activity against Pseudomonas aeruginosa PAO1 assessed as inhibition of bacterial growth by CLSI based micro broth double dilution method
[21] = tested on: Staphylococcus epidermidis; test: Antibacterial activity against methicillin-sensitive Staphylococcus epidermidis ATCC 12228 assessed as inhibition of bacterial growth by CLSI based micro broth double dilution method
Enterococcus faecalis [22] = test: Antibacterial activity against vancomycin-sensitive Enterococcus faecalis 16-6 assessed as inhibition of bacterial growth by CLSI based micro broth double dilution method

| SMILES | MIC (Streptococcus pneumoniae [1]) | MIC (Klebsiella pneumoniae [2]) | MIC (Enterococcus faecalis [3]) | MIC (Staphylococcus aureus [4]) | MIC (Streptococcus pyogenes [5]) | MIC [6] | MIC (Escherichia coli [7]) | MIC (Enterococcus faecalis [8]) | MIC (Klebsiella pneumoniae [9]) | MIC (Enterococcus faecalis [10]) | MIC (Klebsiella pneumoniae [11]) | MIC (Staphylococcus aureus [12]) | MIC (Escherichia coli [13]) | MIC (Streptococcus pyogenes [14]) | MIC (Streptococcus pneumoniae [15]) | MIC (Pseudomonas aeruginosa [16]) | MIC (Escherichia coli [17]) | MIC (Pseudomonas aeruginosa [18]) | MIC (Staphylococcus aureus [19]) | MIC (Pseudomonas aeruginosa [20]) | also measured |
| --- | --- | --- | --- | --- | --- | --- | --- | --- | --- | --- | --- | --- | --- | --- | --- | --- | --- | --- | --- | --- | --- |
| CC[C@H]1OC(=O)[C@@](C)(F)C(=O)[C@H](C)[C@@H](O[C@@H]2O[C@H](C)C[C@H](N(C)C)[C@H]2O)[C@@](C)(OC)C[C@@H](C)C(=O)[C@H](C)[C@H]2N(CCCNc3cnc4ccccc4c3)C(=O)O[C@]12C | ≤ 0.016 µg/mL | > 32 µg/mL | > 32 µg/mL | 0.12 µg/mL (≈ 0.147 µM) | 0.12 µg/mL (≈ 0.147 µM) | 0.12 µg/mL (≈ 0.147 µM) | 32 µg/mL (≈ 39.3 µM) | 0.06 µg/mL (≈ 0.0736 µM) | > 32 µg/mL | > 32 µg/mL | > 32 µg/mL | 0.12 µg/mL (≈ 0.147 µM) | 32 µg/mL (≈ 39.3 µM) | 32 µg/mL (≈ 39.3 µM) | ≤ 0.016 µg/mL | 32 µg/mL (≈ 39.3 µM) | 16 µg/mL (≈ 19.6 µM) | 32 µg/mL (≈ 39.3 µM) | 0.12 µg/mL (≈ 0.147 µM) | 16 µg/mL (≈ 19.6 µM) | MIC [21]: 0.12 µg/mL (≈ 0.147 µM); MIC (Enterococcus faecalis [22]): > 32 µg/mL |
| CC[C@H]1OC(=O)[C@@](C)(F)C(=O)[C@H](C)[C@@H](O[C@@H]2O[C@H](C)C[C@H](N(C)C)[C@H]2O)[C@@](C)(OC)C[C@@H](C)C(=O)[C@H](C)[C@H]2N(CCCn3ccc(=O)c4ccccc43)C(=O)O[C@]12C | ≤ 0.016 µg/mL | > 32 µg/mL | > 32 µg/mL | 0.12 µg/mL (≈ 0.147 µM) | 0.03 µg/mL (≈ 0.0368 µM) | 0.25 µg/mL (≈ 0.306 µM) | > 32 µg/mL | 0.06 µg/mL (≈ 0.0735 µM) | > 32 µg/mL | > 32 µg/mL | > 32 µg/mL | 0.12 µg/mL (≈ 0.147 µM) | > 32 µg/mL | > 32 µg/mL | 0.25 µg/mL (≈ 0.306 µM) | > 32 µg/mL | 16 µg/mL (≈ 19.6 µM) | > 32 µg/mL | 0.12 µg/mL (≈ 0.147 µM) | > 32 µg/mL | MIC [21]: 0.06 µg/mL (≈ 0.0735 µM); MIC (Enterococcus faecalis [22]): > 32 µg/mL |
| CC[C@H]1OC(=O)[C@@](C)(F)C(=O)[C@H](C)[C@@H](O[C@@H]2O[C@H](C)C[C@H](N(C)C)[C@H]2O)[C@@](C)(OC)C[C@@H](C)C(=O)[C@H](C)[C@H]2N(CCCN(C(C)=O)c3cnc4ccccc4c3)C(=O)O[C@]12C | 0.06 µg/mL (≈ 0.07 µM) | > 32 µg/mL | > 32 µg/mL | 0.25 µg/mL (≈ 0.292 µM) | 0.25 µg/mL (≈ 0.292 µM) | 1 µg/mL (≈ 1.17 µM) | > 32 µg/mL | 0.12 µg/mL (≈ 0.14 µM) | > 32 µg/mL | > 32 µg/mL | 32 µg/mL (≈ 37.3 µM) | 0.25 µg/mL (≈ 0.292 µM) | > 32 µg/mL | > 32 µg/mL | 0.25 µg/mL (≈ 0.292 µM) | > 32 µg/mL | > 32 µg/mL | > 32 µg/mL | 0.25 µg/mL (≈ 0.292 µM) | > 32 µg/mL | MIC [21]: 0.25 µg/mL (≈ 0.292 µM); MIC (Enterococcus faecalis [22]): > 32 µg/mL |
| CC[C@H]1OC(=O)[C@@](C)(F)C(=O)[C@H](C)[C@@H](O[C@@H]2O[C@H](C)C[C@H](N(C)C)[C@H]2O)[C@@](C)(OC)C[C@@H](C)C(=O)[C@H](C)[C@H]2N(CCCN(C)c3ccnc4ccccc34)C(=O)O[C@]12C | 0.03 µg/mL (≈ 0.0362 µM) | > 32 µg/mL | > 32 µg/mL | 0.5 µg/mL (≈ 0.603 µM) | 0.03 µg/mL (≈ 0.0362 µM) | 2 µg/mL (≈ 2.41 µM) | > 32 µg/mL | 0.25 µg/mL (≈ 0.302 µM) | > 32 µg/mL | > 32 µg/mL | > 32 µg/mL | 0.5 µg/mL (≈ 0.603 µM) | > 32 µg/mL | > 32 µg/mL | 0.12 µg/mL (≈ 0.145 µM) | > 32 µg/mL | > 32 µg/mL | > 32 µg/mL | 0.5 µg/mL (≈ 0.603 µM) | > 32 µg/mL | MIC [21]: 0.25 µg/mL (≈ 0.302 µM); MIC (Enterococcus faecalis [22]): > 32 µg/mL |
| CC[C@H]1OC(=O)[C@H](C)[C@@H](O[C@H]2C[C@@](C)(OC)[C@@H](O)[C@H](C)O2)[C@H](C)[C@@H](O[C@@H]2O[C@H](C)C[C@H](N(C)C)[C@H]2O)[C@](C)(OC)C[C@@H](C)C(=O)[C@H](C)[C@@H](O)[C@]1(C)O [CLARITHROMYCIN] | 0.12 µg/mL (≈ 0.16 µM) | > 64 µg/mL | > 64 µg/mL | 0.25 µg/mL (≈ 0.334 µM) | 0.03 µg/mL (≈ 0.0401 µM) | 64 µg/mL (≈ 85.6 µM) | > 64 µg/mL | 2 µg/mL (≈ 2.67 µM) | > 64 µg/mL | > 64 µg/mL | > 64 µg/mL | 0.25 µg/mL (≈ 0.334 µM) | > 64 µg/mL | 64 µg/mL (≈ 85.6 µM) | > 32 µg/mL | > 64 µg/mL | 32 µg/mL (≈ 42.8 µM) | > 64 µg/mL | 0.25 µg/mL (≈ 0.334 µM) | > 64 µg/mL | MIC [21]: 0.12 µg/mL (≈ 0.16 µM); MIC (Enterococcus faecalis [22]): > 64 µg/mL |
| CC[C@H]1OC(=O)[C@@](C)(F)C(=O)[C@H](C)[C@@H](O[C@@H]2O[C@H](C)C[C@H](N(C)C)[C@H]2O)[C@@](C)(OC)C[C@@H](C)C(=O)[C@H](C)[C@H]2N(CCCNc3ccnc4ccccc34)C(=O)O[C@]12C | ≤ 0.016 µg/mL | 16 µg/mL (≈ 19.6 µM) | > 32 µg/mL | 0.12 µg/mL (≈ 0.147 µM) | 0.06 µg/mL (≈ 0.0736 µM) | 0.25 µg/mL (≈ 0.307 µM) | 8 µg/mL (≈ 9.82 µM) | 0.12 µg/mL (≈ 0.147 µM) | 8 µg/mL (≈ 9.82 µM) | > 32 µg/mL | 32 µg/mL (≈ 39.3 µM) | 0.12 µg/mL (≈ 0.147 µM) | 8 µg/mL (≈ 9.82 µM) | > 32 µg/mL | 0.06 µg/mL (≈ 0.0736 µM) | > 32 µg/mL | 4 µg/mL (≈ 4.91 µM) | > 32 µg/mL | 0.12 µg/mL (≈ 0.147 µM) | > 32 µg/mL | MIC [21]: 0.06 µg/mL (≈ 0.0736 µM); MIC (Enterococcus faecalis [22]): > 32 µg/mL |
| CC[C@H]1OC(=O)[C@@](C)(F)C(=O)[C@H](C)[C@@H](O[C@@H]2O[C@H](C)C[C@H](N(C)C)[C@H]2O)[C@@](C)(OC)C[C@@H](C)C(=O)[C@H](C)[C@H]2N(CCCN(C(=O)c3ccccc3)c3cnc4ccccc4c3)C(=O)O[C@]12C | ≤ 0.016 µg/mL | > 32 µg/mL | > 32 µg/mL | 0.25 µg/mL (≈ 0.272 µM) | 0.03 µg/mL (≈ 0.0326 µM) | 1 µg/mL (≈ 1.09 µM) | > 32 µg/mL | 0.12 µg/mL (≈ 0.131 µM) | > 32 µg/mL | > 32 µg/mL | > 32 µg/mL | 0.25 µg/mL (≈ 0.272 µM) | > 32 µg/mL | 32 µg/mL (≈ 34.8 µM) | 0.06 µg/mL (≈ 0.0653 µM) | > 32 µg/mL | > 32 µg/mL | > 32 µg/mL | 0.25 µg/mL (≈ 0.272 µM) | > 32 µg/mL | MIC [21]: 0.12 µg/mL (≈ 0.131 µM); MIC (Enterococcus faecalis [22]): > 32 µg/mL |

From ChEMBL document CHEMBL5236651, “Synthesis and antibacterial activity of novel 2‑fluoro ketolide antibiotics with 11,12‑quinoylalkyl side chains” (2023)
